Data published in US4331666A, “3-[(8-Carboxy-6-tetraz olo[1,5-b]pyridazinyl)-thiomethyl]-7-[2-(2-amino-4-thiazolyl)-2-methoxyim ino-acetamido]-3-cephem-4-carboxylic acid” (Farmitalia Carlo Erba S.p.A., priority 1979, dated 1982).
Like-named read-outs stand apart in the source and are kept apart here.

What was measured:
[1] = system: streptococci; type: cell-based
[2] = plasma half-life in the rat after intravenous injection; conditions: in vivo
[3] = system: Bacteroides fragilis VPL 9032; assay: in vitro activity against Bacteroides fragilis VPL 9032; type: cell-based
[4] = plasma half-life in the mouse after intravenous injection; conditions: in vivo
[5] = system: Pseudomonas aeruginosa G.; assay: in vitro activity against Pseudomonas aeruginosa G.; type: cell-based
[6] = system: Gram-negative bacteria; assay: antibacterial activity against most Gram-negative bacteria (compared with Cefazolin and Cefuroxime); type: cell-based
[7] = approximate acute toxicity (LD50) in the mouse; conditions: in vivo, single intravenous administrations of increasing doses, measured on the seventh day
Source text: The toxicity of the compounds of the invention is quite negligible and therefore they can be safely used in therapy. […] Analogous activity and toxicity data have been found for the other compounds of the invention.

[8] = system: mice infected with Escherichia coli G, Klebsiella pneumoniae ATCC 10031, Proteus mirabilis ATCC 9921, Escherichia coli Tem., Haemophilus influenzae Salmonella …; assay: in vivo activity in infected mice; conditions: in words
[9] = system: 10 strains of Pseudomonas aeruginosa, 4 strains of Proteus vulgaris and 4 strains of Proteus morganii; assay: test on a series of strains of Pseudomonas aeruginosa, Proteus vulgaris and Proteus morganii; type: cell-based; conditions: 10 strains Pseudomonas aeruginosa, 4 strains Proteus vulgaris, 4 strains Proteus morganii

SMILES	times more active than Cefazolin against streptococci [1]	half-life [2]	in vitro activity [3]	half-life [4]	in vitro activity [5]	times more active than Cefazolin against most Gram-negative bacteria ([6]; ratio vs Cefazolin)	times more active than Cefuroxime against most Gram-negative bacteria ([6]; ratio vs Cefuroxime)	LD50 at 168 h [7]	activity in vivo tests [8]	times more active than Cefazolin against streptococci ([1]; ratio vs Cefazolin, streptococci)	activity compared with Cefazolin and Cefuroxime [9]	times more active than Cefazolin and Cefuroxime against most Gram-negative bacteria ([6]; ratio vs Cefazolin and Cefuroxime)
CON=C(C(=O)NC1C(=O)N2C(C(=O)O)=C(CSc3cc(C(=O)O)c4nnnn4n3)CSC12)c1csc(N)n1 (stereo not drawn) [FCE 20485, 3-[(8-carboxy-6-tetrazolo[1,5-b]pyridazinyl)-thiomethyl]-7-[2-(2-amino-4-thiazolyl)-2-methoxyiminoacetamido]-3-cephem-4-carboxylic acid (syn-isomer)]	about 5 times	~1.67 h	significant in vitro activity	~1.5 h	significant in vitro activity	about 32 times	~40 times	> 2000 mg/kg	high activity	–	–	–
CON=C(C(=O)NC1C(=O)N2C(C(=O)O)=C(CSc3cc(N)c4nnnn4n3)CSC12)c1csc(N)n1 (stereo not drawn) [FCE 20127, 3-[(8-amino-6-tetrazolo[1,5-b]pyridazinyl)-thiomethyl]-7-[2-(2-amino-4-thiazolyl)-2-methoxyiminoacetamido]-3-cephem-4-carboxylic acid (syn-isomer)]	–	–	–	–	–	–	–	–	–	about 24 times	several times more active than Cefazolin and Cefuroxime	about 30 times
